# Experimental data taken from article PMC11609934, “Exploration and characterization of the antimalarial activity of cyclopropyl carboxamides that target the mitochondrial protein, cytochrome b” (European Journal of Medicinal Chemistry, 2024).
# pEC50: −log10 of the molar value. Like-named read-outs stand apart in the source and are kept apart here.
# How the values were obtained:
# [1] = tested on: P. falciparum 3D7 parasites; assay: P. falciparum 3D7 asexual stage LDH assay (72 h); assay type: cell-based, Plasmodium falciparum; details: Plasmodium falciparum, read-out: Pf 3D7 EC50 (SD)
# Procedure, shortened: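 Asexual P. falciparum 3D7 parasites were grown for 72 h over a 10-point, 3-fold series starting at 1 μM in 0.1% DMSO, with 100 nM chloroquine as negative growth control. After freeze-thaw, parasite LDH was read at 650 nm, and EC50 came from a variable-slope sigmoidal fit.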
# [2] = tested on: Pf Dd2 expressing ScDHODH; design: method as in Nguyen, Dans et al. [8]; details: known drug controls; ref Nguyen, Dans et al. [8]; cited from earlier work
# Pf SB1-A6 strain = tested on: Pf SB1-A6 strain; design: method as in Nguyen, Dans et al. [8]; details: known drug controls; ref Nguyen, Dans et al. [8]; cited from earlier work
# [3] = tested on: W499-resistant populations; assay: microbe, parasite or virus in culture; assay type: cell-based, Plasmodium falciparum; details: for pEC50: Plasmodium falciparum
# Description: (§1) To confirm if W466 (1) and W499 (2) may have the same molecular target, W466 (1) and W499 (2) were each evaluated for cross resistance against their respective resistant populations from the pulsed forward genetic study (Fig. 2).
# [4] = tested on: W466-resistant populations; assay: 72 h growth assay against W466-resistant populations; assay type: cell-based, Plasmodium falciparum; details: Plasmodium falciparum
# Description: To determine the mechanism of action of the cyclopropyl carboxamide series, a forward genetic resistance study was undertaken on the two hit compounds W466 (1) and W499 (2).
# as §1, with “The structures of W466 (1) and W499 (2) are slightly different although they appear to belong to the same structural class. To” for “To”
# [5] = tested on: ring-stage P. falciparum parasites; assay: Asexual stage of arrest assay; assay type: cell-based, Plasmodium falciparum; details: 10 times EC50, sampled every 12 h for 48 h
# Description: Characterization of asexual stage phenotype and rate of asexual kill is important in determining the downstream application and TCP of an antimalarial series. […] Parasites were sampled every 12 h for 48 h, to prepare Giemsa-stained blood smears for analysis by microscopy. Parasitemia of each sample was measured by flow cytometry using SYBR-Green DNA staining.
# Asexual Stage of Arrest Assay. This assay was conducted as previously described.
# Pf Dd2 parental line = details: known drug controls; ref Nguyen, Dans et al. [8]; cited from earlier work
# mitochondrial ETC = assay: P. falciparum oxygen consumption rate (OCR) assay (Seahorse XFe96); assay type: cell-based, Plasmodium falciparum; details: compounds 5 μM
# Description: To provide further evidence to support the cyclopropyl carboxamide series targeting cyt b, an oxygen consumption rate (OCR) assay was performed using a Seahorse XFe96 Flux Analyzer. The primary role of the mitochondria ETC is to produce ATP oxidative phosphorylation, and thus the oxygen consumption directly quantifies mitochondrial ETC activity. In this assay, malate, which is a substrate of malate quinone dehydrogenase (MQD), was added to provide a base line of oxygen consumption at approximately 50 pmol/min (Fig. 4). […] Finally, NaN3 was added to inhibit complex IV to bring the OCR back to basal levels.
# Fig. 4 P. falciparum oxygen consumption rate (OCR) assay. Data represent the means and SDs of 3 technical replicates. Time points and reagent injections were as follows, 1. First 5 timepoints measured the basal level of malate-dependent OCR; 2. Compounds (5 μM) were injected independently (indicated by arrow), and OCR measured for 8-timepoints; 3. TMPD (a cytochrome c electron donor) was injected, and OCR measured for 5 time points; 4. NaN3 (a complex IV inhibitor) was then added, and OCR measured for 5 time points.
# ETC Biosensor Assay. This assay was performed as previously described. Briefly, 3 × 10^8 trophozoite infected RBCs were purified using the SuperMACS II separator (Miltenyi Biotec, Germany). The trophozoite-stage parasites were released from erythrocytes by treating them with 0.05 % (w/v) pre-warmed saponin in phosphate-buffered saline (PBS) at 37 °C for 3 min. The cells were washed with pre-warmed PBS, three times. […] The cells were measured for oxygen consumption rate (OCR) using Seahorse XFe96 flux analyzer (Agilent). The OCR was assessed for five cycles of 20 s mixing, 1 min waiting, 2.5 min measuring to establish baseline OCR before any substrate injections, for eight cycles of 20 s mixing, 1 min waiting followed by 2.5 min measuring after inhibitor injection from port A and for five cycles of 20 s mixing 1 min waiting, 2.5 min measuring after TMPD, and NaN3, injections.
# [6] = Human HepG2 growth inhibition assay (Cell TitreGlo, 48 h); assay type: cell-based; details: human, HepG2 cells, HepG2 cell growth inhibition over 48 h
# Procedure, shortened: (§2)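 HepG2 cells (1000/well, DMEM + 10% FCS) exposed 48 h at 37 °C, 5% CO2 to compound from 50 μM top concentration in 1:2 dilutions, 0.5% DMSO final. Viability read by Cell Titer Glo, normalised to DMSO and 10 μM bortezomib; EC50 by four-parameter variable-slope fit.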
# [7] = Human liver microsome stability; assay type: in vitro ADME; details: pooled human liver microsomes
# Description: Human Liver Microsome Stability. A solution of the test compounds in phosphate buffer solution (1 μM) was incubated in pooled human liver microsomes (0.5 mg/mL) for 0, 5, 20, 30, 45 and 60 min at 37 °C in the presence and absence of NADPH regeneration system. The reaction was terminated with the addition of ice-cold acetonitrile containing system suitability standard at designated time points. […] The experiment was carried out in duplicate. Verapamil, diltiazem, phenacetin, and imipramine were used as reference standards.
# [8] = Aqueous solubility (kinetic in PBS, pH 7.4); assay type: physicochemical; details: phosphate buffered saline
# Description: Solubility. The solubility assay was performed using a miniaturized shake flask method. A solution of phosphate buffered saline (PBS) and the test compound (200 μM) was incubated at 25 °C with constant shaking (600 rpm) for 2 h. The samples were filtered using a multiscreen solubility filter plate. The filtrate was half diluted in acetonitrile. A five-point linearity curve was prepared in PBS:acetonitrile (1:1, v/v) at 200, 150, 75, 25 and 2.5 μM. Blank, linearity and test samples (n = 2) were transferred to a UV readable plate and the plate was scanned for absorbance. Best fit calibration curves were constructed using the calibration standards and used to determine the test sample solubility. The experiment was carried out in duplicate. Diethylstilbestrol, haloperidol, and diclofenac sodium were used as reference standards.
# female gamete = assay: Dual gamete formation assay, female gametes; assay type: cell-based; details: Plasmodium falciparum; NF54 parasites in a DGFA, 4 replicates
# Description: (§3) To determine whether the cyclopropyl carboxamide class has transmission blocking potential we profiled selected analogs in a dual gamete formation assay. In this assay, stage V gametocytes are treated with compound, and gametogenesis is induced by the addition of xanthurenic acid. Male gamete viability is determined by an imaging algorithm measuring motile flagellation, while female viability is measured using an antibody to the female-specific Pfs25 surface marker. […] Collectively, the activity observed against male gametes is consistent with activity observed with other cyt b inhibitors.
# (§4) Dual Gamete Formation Assay. Compounds were evaluated as previously described as a platform run at both Imperial College London and the London School of Hygiene and Tropical Medicine. Briefly, mature stage V gametocytes were exposed to compounds for 48 h at 37 °C in 384 well plates in gametocyte culture medium (RPMI 1640 supplemented with 25 mM HEPES, 50 μg/mL hypoxanthine, 4.8 g/L NaHCO3, 2 mM L-glutamine, 5 % pooled type AB serum, 0.5 % Albumax II (Gibco)) under a 1 % O2/3 % CO2/96 % N2 environment. Gametogenesis was then triggered by the addition of 10 μL ookinete medium (gametocyte culture medium supplemented with 100 μM xanthurenic acid and 0.27 μg/mL Cy3-labelled anti-Pfs25 antibody) to each well at room temperature. Plates were then cooled on a metal block at 4 °C for 4 min to ensure even cooling and then stabilized for a further 4 min at 28 °C. At 20 min post-induction, male gametogenesis was recorded in each well by automated brightfield microscopy using a × 4 objective lens and 1.5 × magnifier ( × 6 effective magnification). Afterward, plates were incubated in the dark at room temperature for 24 h and then female gametogenesis recorded in each well by automated fluorescence microscopy (anti-Pfs25-positive cells). […] All data was evaluated in comparison to the positive and negative controls to calculate percentage inhibition of male and female gametocytes, and dose response analysis and EC50 calculation performed using GraphPad Prism.
# [9] = eLogD (shake-flask, pH 7.4); assay type: physicochemical; details: 1-octanol/phosphate buffered saline (1:1, v/v), Shake-flask method
# Description: eLogD. The LogD (pH 7.4) assay was performed using a miniaturized shake flask method. A solution of a pre-saturated mixture of 1-octanol and phosphate buffered saline (PBS) (1:1, v/v) and the test compound (75 μM) was incubated at 25 °C with constant shaking (850 rpm) for 2 h. After incubation the organic and aqueous phases were separated, and samples of each phase transferred to plate for dilution. The organic phase was diluted to 1000-fold and the aqueous phase was diluted 20-fold. The samples were quantitated using LC-MS/MS. The experiment was carried out in duplicate. Propranolol, amitriptyline, and midazolam were used as reference standards.
# Rat hepatocyte stability = assay type: in vitro ADME; details: pooled rat hepatocytes
# Description: Rat Hepatocyte Stability. A solution of the test compound in Krebs-Henseliet buffer solution (1 μM) was incubated in pooled rat hepatocytes (1 × 10^6 cells/mL) for 0, 15,30,45, 60, 75 and 90 min at 37 °C (5 % CO2, 95 % relative humidity). The reaction was terminated with the addition of ice-cold acetonitrile containing system suitability standard at designated time points. […] The experiment was carried out in duplicate. Diltiazem, 7-ethoxy coumarin, propranolol, and midazolam were used as reference standards.
# male gamete = assay: Dual gamete formation assay, male gametes; assay type: cell-based; details: Plasmodium falciparum; NF54 parasites in a DGFA, 4 replicates
# Description: as §3, §4
# [10] = tested on: Pf Dd2 strain with an I22L mutation in the Qi site cyt b; design: method as in Nguyen, Dans et al. [8]; details: known drug controls; ref Nguyen, Dans et al. [8]; read-out: Pf cyt b mutant strains EC50 Dd2 cyt b(I22L); cited from earlier work
# [11] = tested on: Pf 3D7 3-oxadiazole quinolone resistant strain with a V259L mutation in the Qo site of cyt b; design: method as in Nguyen, Dans et al. [8]; details: known drug controls; ref Nguyen, Dans et al. [8]; read-out: Pf cyt b mutant strains EC50 3D7 cyt b(V259L); cited from earlier work
# human HepG2 cell line = assay: Human HepG2 growth inhibition assay (Cell TitreGlo, 48 h); assay type: cell-based; details: HepG2 cell growth inhibition over 48 h
# Procedure, shortened: as §2
# [12] = 3D7 / DSM 265, parent 3D7 for resistant populations, LDH assay, 3 experiments (SYBR-green for DSM265)
# [13] = DSM265, read-out: W499-resistant populations EC50 (SD) #2
# [14] = DSM265, read-out: W499-resistant populations EC50 (SD) #3
# [15] = read-out: W466-resistant populations EC50 (SD) #1
# [16] = read-out: W466-resistant populations EC50 (SD) #2
# [17] = read-out: W466-resistant populations EC50 (SD) #3
Compound,"pEC50 [1, 12]",pEC50 [2],pEC50 (Pf SB1-A6 strain),"pEC50 [3, 13]","pEC50 [3, 14]","pEC50 [4, 15]","pEC50 [4, 16]","pEC50 [4, 17]",pEC50 (Pf Dd2 parental line),effect on malate-dependent oxygen consumption rate (OCR) (mitochondrial ETC),fold shift in EC50 against W499-resistant populations compared to wildtype 3D7 [3] [fold],further results
"O=C1C(O)=C([C@H]2CC[C@H](c3ccc(Cl)cc3)CC2)C(=O)c2ccccc21 [ATQ, atovaquone]",9.00,< 5.00,< 5.00,8.40,8.52,8.70,9.00,9.00,9.00,an OCR reduction was detected,,pEC50 ([4]; read-out: EC50 against W466-resistant parasites): 9.00; asexual stage of arrest [5]: arrest at the trophozoite stage
"CCCN(Cc1ccc(C(=O)NC2CC2)cc1)Cc1ccc(C(C)(C)C)cc1 [Compound 107, 4-(((4-(tert-Butyl)benzyl) (propyl)amino)methyl)-N-cyclopropylbenzamide]",,,,,,,,,,,,"pEC50 ([1]; 3D7, 72 h, LDH activity of P. falciparum 3D7 parasites over 72 h, means and SDs, three or more experiments): 7.70; CC50 at 48 h [6]: > 40 µM; microsomal CLint at 1 h, 1 µM [7]: 263 µL/min/mg; solubility at 2 h [8]: 10 µM; pEC50 (female gamete): 4.67; logD at 2 h [9]: 4.9; hepatocyte CLint at 1.5 h, 1 µM (Rat hepatocyte stability): 92 µL/min/1e6 cells; pEC50 (male gamete): 7.10"
Cc1cc(Nc2ccc(S(F)(F)(F)(F)F)cc2)n2nc(C(C)(F)F)nc2n1 [DSM265],7.28,< 5.00,< 5.00,< 6.00,< 6.00,7.72,7.89,7.89,7.62,didn't change the basal OCR,> 10,pEC50 ([3]; read-out: EC50 against W499-resistant parasites): < 6.00
COc1cc2[nH]c(C)c(-c3ccc(Oc4ccc(OC(F)(F)F)cc4)cc3)c(=O)c2cc1Cl [ELQ300],7.89,,,7.28,7.35,7.44,7.74,7.70,7.68,,2,pEC50 [10]: 6.75; pEC50 [11]: 7.92
"N-Cyclopropyl-4-((cyclopropyl(3,4-dimethylbenzyl)amino)methyl)benzamide [Compound 79]",,,,,,,,,,,,CC50 (human HepG2 cell line): > 40 µM
